# Values of other authors, collected in US20070184084A1, “IMPLANTABLE ELASTOMERIC CAPROLACTONE DEPOT COMPOSITIONS AND USES THEREOF” (priority 2003, published 2007).
# Conditions: reported value
structure (smiles),measurement,value
CC(=O)OCC(COC(C)=O)OC(C)=O [triacetin],solubility in water,7.17 grams in 100 ml of water
